Reference: patent US12331040B2 (Karyopharm Therapeutics Inc., priority 2013, dated 2025)
Read-outs that look alike come from different tables or passages of the source.

How the values were obtained:
3T3 cells = test: MTT cell proliferation assay; format: cell-based; conditions: Mus musculus, NIH3T3, approximately 64-72 hours incubation
Summary of the method: (§1)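 5,000-10,000 cells/well, overnight attach; 8 conc., 1 nM–30 μM; MTT ~4 h; formazan solubilized, OD 490 nm; % inhibition = (1−(ODo/OD))×100 vs neg. control; mostly duplicate, mean±SE.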

MS751 cells = test: MTT cell proliferation assay; format: cell-based; conditions: Homo sapiens, MS751, MS751 cells, approximately 64-72 hours incubation
Summary of the method: as §1

Z138 cells = test: MTT cell proliferation assay; format: cell-based; conditions: Homo sapiens, Z-138, Z138 cells, approximately 64-72 hours incubation
Summary of the method: as §1

Molt-4 xenografts = test: Molt-4 T-ALL xenograft in SCID mice; format: in vivo, mouse; conditions: 100 mg/kg PO twice daily (BID)
Procedure: In this study, the impact of Compounds 667 and 728 on tumor growth was tested using the Molt-4 T-ALL cancer xenograft model in SCID mice. MOLT-4 (CRL-1582) acute lymphoblastic leukemia cells were obtained from ATCC. These cells were grown in RPMI-1640 medium supplemented with 10% fetal bovine serum, 1% penicillin and streptomycin. Cells were sub-cultured by transferring floating cells to a new flask and trypsinizing adherent cells before subculturing at a ratio of 1:4. Molt-4 cells were harvested by centrifugation and counted using a hemocytometer. Cells were resuspended in PBS at a 5×10^7 cells per mL. Cells were placed on ice and mixed with an equal volume of Matrigel (BD Biosciences CB-40234). This mixture was kept on ice and injected into the left flank of mice in a volume of 0.2 mL, equivalent to 5×10^6 cells per mouse. Twenty-four (24) CB-17 SCID mice were inoculated subcutaneously in the left flank with the Molt-4 cells. Treatment was initiated when the tumors reached a mean volume of approximately 100 mm^3. Mice were allocated to three (3) groups of eight (8) mice. Mice were treated with vehicle, Compound 667 or Compound 728. Compounds 667 and 728 (100 mg/kg) were given orally (PO) twice daily (BID) beginning on Day 1. Animal weights and conditions were recorded daily, and tumors were measured on Mondays, Wednesdays and Fridays.

HEP 3B cells = test: MTT cell proliferation assay; format: cell-based; conditions: Homo sapiens, Hep3B; HEP 3B cell line; read-out: MTT Assay IC50, HEP 3B
Procedure: (§2) The MTT cell proliferation assay was used to study the cytotoxic properties of the compounds. The assay was performed according to the method described by Roche Molecular Biochemicals, with minor modifications. The assay is based on the cleavage of the tetrazolium salt, MTT, in the presence of an electron-coupling reagent. The water-insoluble formazan salt produced must be solubilized in an additional step. Cells grown in a 96-well tissue culture plate were incubated with the MTT solution for approximately 4 hours. After this incubation period, a water-insoluble formazan dye formed. After solubilization, the formazan dye was quantitated using a scanning multi-well spectrophotometer (ELISA reader). […] The cells were seeded at 5,000-10,000 cells in each well of 96-well plate in 100 μL of fresh culture medium and were allowed to attach overnight. The stock solutions of the compounds were diluted in 100 μL cell culture medium to obtain eight concentrations of each test compound, ranging from 1 nM to 30 μM. […] All optical densities were measured at 490 nm using a Vmax Kinetic Microplate Reader (Molecular Devices). In most cases, the assay was performed in duplicate and the results were presented as a mean percent inhibition to the negative control±SE. The following formula was used to calculate the percent of inhibition: Inhibition (%)=(1−(ODo/OD))×100.
(§3) The M24 cell line is derived from human melanoma cells. The U2OS cell line is a human osteosarcoma cell line expressing wild type p53 and Rb, but lacking p16. The MM1S cell line is a multiple myeloma cell line; the parent cell line, MM.1, was established from peripheral blood of a multiple myeloma patient who had become resistant to steroid-based therapy. The RPMI8226 cell line is derived from human B lymphocyte cells. NHDF cells are normal human dermal fibroblast cells. The MRC-5 cell line is derived from normal lung tissue of a fetus. The PC3 cell line is a human prostate cancer cell line. The DU-145 cell line is a human prostate cancer cell line. The MDA-MB-231 cell line is a human breast adenocarcinoma cell line. The MDA-MB-468 cell line is a human breast carcinoma cell line. HL-60 cells are human promyelocytic leukemia cells. Hep G2 cells are human hepatocellular carcinoma cells. HEP 3B cells are human hepatocellular carcinoma cells. The DLD-1 cell line is a colorectal adenocarcinoma cell line. The HCT-15 cell line is a human colon carcinoma cell line. The Colo-205 cell line is derived from a human adenocarcinoma of the colon. The LoVo cell line is a human colon adenocarcinoma cell line.

Hep G2 cells = test: MTT cell proliferation assay; format: cell-based; conditions: Homo sapiens, HepG2; Hep G2 cell line; read-out: MTT Assay IC50, Hep G2
Procedure: as §2, §3

MRC-5 cells = test: MTT cell proliferation assay; format: cell-based; conditions: Homo sapiens, MRC5; MRC-5 cell line
Procedure: as §2, §3

SMILES	IC50 (3T3 cells; read-out: MTT Assay IC50, 3T3) [µM]	IC50 (MS751 cells; read-out: MTT Assay IC50, MS-751) [µM]	IC50 (Z138 cells; read-out: MTT Assay IC50, Z-138) [µM]	median tumor volume of Molt-4 xenografts (as a percentage of pre-dose tumor volume) (Molt-4 xenografts)	IC50 (3T3 cells; read-out: MTT Assay IC50 3T3) [µM]	IC50 (MS751 cells; read-out: MTT Assay IC50 MS-751) [µM]	IC50 (Z138 cells; read-out: MTT Assay IC50 Z-138) [µM]	IC50 (HEP 3B cells) [µM]	IC50 (Hep G2 cells) [µM]	IC50 (MRC-5 cells) [µM]
Nc1ccc(/C=C/C(=O)NCc2cc3cc(-c4ccc(C(=O)N5CCC(F)(F)CC5)cc4)cc(-c4ccc(F)cc4)c3o2)cn1 [Compound 728, (E)-3-(6-aminopyridin-3-yl)-N-((5-(4-(4,4-difluoropiperidine-1-carbonyl)phenyl)-7-(4-fluorophenyl)benzofuran-2-yl)methyl)acrylamide]	0.1 to 5	< 0.1	< 0.1	tumor growth inhibition	–	–	–	–	–	–
Nc1ccc(/C=C/C(=O)NCc2cc3cc(-c4ccc(C(=O)N5CCOCC5)cc4)cc(Cl)c3o2)cn1 [Compound 502, (E)-3-(6-aminopyridin-3-yl)-N-((7-chloro-5-(4-(morpholine-4-carbonyl)phenyl)benzofuran-2-yl)methyl)acrylamide]	–	–	–	–	> 10	0.1 to 5	0.1 to 5	0.1 to 5	0.1 to 5	0.1 to 5
